From the NIST ThermoML archive (doi:10.1021/acs.jced.5b01102)
± gives the expanded uncertainty stated by the source.

Assay: refractive index (Na D-line) (dimensionless)
Details: 298.15 K; 101.33 kPa; Liquid; Standard Abbe refractometry

## CCO [ethanol]
  refractive index: 1.35947 ± 0.00033

## O [water]
  refractive index: 1.33251 ± 0.00031

## CO [methanol]
  refractive index: 1.32655 ± 0.00031
